Experimental data: patent US12435061B2 (priority 2020, dated 2025)
≈ marks a conversion by molar mass, not a printed value. Where two headings read alike, the source gives them in different places.

Legend:
[1] = Aqueous solubility assay in Normal Ringer Solution; settings: Normal Ringer Solution; for Solubility Ringer (nM): room temperature; for solubility at 40 min: saline or isotonic, kinetic from dmso stock
Procedure: Following vortex and incubation for a sufficient time (e.g. 40 minutes at room temperature), solutions were filtered, quenched with acetonitrile, and analyzed by Liquid Chromotography. Solubility Limits were determined by comparison to a standard curve.

[2] = molecular target: T1, hTRPV3 (Homo sapiens (Human), UniProt Q8NET8); assay: Whole-cell patch clamp, hTRPV3 Phase 1 / Phase 2 currents; assay type: cell-based
T1 sequence (Q8NET8 whole entry): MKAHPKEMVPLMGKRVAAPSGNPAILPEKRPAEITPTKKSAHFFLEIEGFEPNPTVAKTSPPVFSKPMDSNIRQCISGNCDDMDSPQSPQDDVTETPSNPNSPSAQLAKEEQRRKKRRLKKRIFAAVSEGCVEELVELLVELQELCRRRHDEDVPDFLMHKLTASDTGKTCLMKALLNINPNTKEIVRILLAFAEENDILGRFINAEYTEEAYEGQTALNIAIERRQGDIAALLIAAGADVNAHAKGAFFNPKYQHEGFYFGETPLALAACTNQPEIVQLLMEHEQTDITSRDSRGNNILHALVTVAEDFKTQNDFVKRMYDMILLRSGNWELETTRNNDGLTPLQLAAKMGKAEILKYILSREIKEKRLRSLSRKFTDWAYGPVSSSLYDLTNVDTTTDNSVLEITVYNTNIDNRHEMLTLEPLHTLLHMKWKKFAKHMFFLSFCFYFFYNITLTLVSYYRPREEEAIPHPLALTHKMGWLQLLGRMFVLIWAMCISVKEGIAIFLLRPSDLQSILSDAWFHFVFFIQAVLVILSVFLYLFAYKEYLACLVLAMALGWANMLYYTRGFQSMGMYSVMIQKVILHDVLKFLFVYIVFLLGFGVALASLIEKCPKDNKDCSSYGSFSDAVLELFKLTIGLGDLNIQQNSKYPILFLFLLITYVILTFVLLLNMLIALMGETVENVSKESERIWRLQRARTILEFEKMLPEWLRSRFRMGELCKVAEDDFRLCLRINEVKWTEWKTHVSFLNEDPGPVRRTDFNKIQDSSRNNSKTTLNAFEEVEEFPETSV
How it was run: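 Currents are activated by 20 μM 2-APB or by perfusate at 28 °C or warmer, in Ringer's solution, and quantified at ±80 mV.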

[3] = molecular target: T1, hTRPV3; assay: hTRPV3 HAMA IC50 assay (Hamamatsu FDSS6000 calcium flux, TRex-293 cells)
Procedure: IC50s were calculated using CBIS from ChemInnovation (San Diego).

[4] = Metabolic Stability assay, rat liver microsomes; assay type: in vitro ADME; settings: read-out: LM T1/2 (min) (rat)
How it was run: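 Reactions in human or rat liver microsomes at 37 °C were started with an NADPH-regenerating system, using 1 μM compound initially. Samples were taken at 0, 7, 15, 30 and 60 min, quenched in ice-cold acetonitrile/MeOH/H2O, and quantified by HPLC/MS/MS.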

[5] = Phase 1 current, inward, whole-cell patch clamp, read-out: hTRPV3 Patch P1 Inwd
[6] = Phase 1 current, read-out: hTRPV3 (nM) (Phase 1)
[7] = Phase 2 current, inward, whole-cell patch clamp, read-out: hTRPV3 Patch P2 Inwd
[8] = Phase 2 current, read-out: hTRPV3 (nM) (Phase 2)
[9] = hTRPV3 HAMA IC50 (nM) (30 min), 30 min

| Compound | Solubility Ringer (nM) [1] | IC50 [2, 5] [nM] | IC50 [2, 6] [nM] | IC50 [2, 7] [nM] | IC50 [2, 8] [nM] | hTRPV3 HAMA IC50 (nM) (5 min) ([3]; 5 min) | solubility at 40 min [1] [µM] | IC50 ([2]; hTRPV3 Patch P1 Inwd (nM)) [nM] | IC50 ([2]; read-out: hTRPV3 (nM) (Phase 1)) | hTRPV3 HAMA IC50 (nM) (30 min) ([3]; 30 min) | half-life at 1 μM [4] [min] | IC50 [3, 9] [nM] | IC50 ([3]; hTRPV3 HAMA IC50 (nM) (5 min), 5 min) | hTRPV3 HAMA IC50 (nM) (5 min) [3] |
| --- | --- | --- | --- | --- | --- | --- | --- | --- | --- | --- | --- | --- | --- | --- |
| N#Cc1cc(C(F)(F)F)ccc1N1CC[C@H](Oc2ccc(C(F)(F)F)cn2)C1 [Compound 1-57] | BLQ | 100 to 1000 | 706 | 100 to 1000 | 219 | no fit (5 min) | – | – | – | – | – | – | – | – |
| Cc1ccc(O[C@H]2CCN(c3ccc(-c4ccccc4CN(C)C)cc3CO)C2)nc1 [Compound 1-219, (S)-(2′-((dimethylamino)methyl)-4-(3-(5-methylpyridin-2-yloxy)pyrrolidin-1-yl)biphenyl-3-yl)methanol] | – | – | – | – | – | no fit (5 min) no fit (30 min) | > 20 | > 1000 | > 3200 | no fit (5 min) no fit (30 min) | – | – | – | – |
| Cc1ccccc1-c1ccc(N2CC[C@H](Oc3ncccc3C)C2)c(CO)n1 [Compound 1-179, (S)-(3-(3-(3-methylpyridin-2-yloxy)pyrrolidin-1-yl)-6-o-tolylpyridin-2-yl)methanol] | – | 100 to 1000 | 329 | 100 to 1000 | ~841 | no fit (5 min) | > 0.73 | – | – | – | – | – | – | – |
| CCc1ccccc1Oc1ccc(CO)c(N2CC[C@H](Oc3ncccc3Cl)C2)c1 [Compound 1-233, (S)-(2-(3-(3-chloropyridin-2-yloxy)pyrrolidin-1-yl)-4-(2-ethylphenoxy)phenyl)methanol] | BLQ | 10 to 100 | ~21.6 | – | – | no fit | – | – | – | – | 10.4 | > 20000 | – | – |
| CC(O)c1cc(-c2ccccc2)ccc1N1CC[C@H](Oc2ccc(C(F)(F)F)cn2)C1 (stereo partly drawn) [Compound 1-121, 1-(4-((S)-3-(5-(trifluoromethyl)pyridin-2-yloxy)pyrrolidin-1-yl)biphenyl-3-yl)ethanol] | BLQ | 10 to 100 | 102 | – | – | no fit (5 min) | – | – | – | – | 33.3 | – | – | – |
| OCc1ccc(-c2ccccc2)cc1N1CC[C@H](Oc2ccc(C(F)(F)F)cn2)C1 [Compound 1-180, (S)-(3-(3-(5-(trifluoromethyl)pyridin-2-yloxy)pyrrolidin-1-yl)biphenyl-4-yl)methanol] | – | > 1000 | 1550 | > 1000 | 1860 | no fit (5 min) no fit (30 min) | ~0.2 (≈ 0.0829 µg/mL) | – | – | no fit (5 min) no fit (30 min) | – | – | – | – |
| Cc1ccccc1-c1ccc(N2CC[C@H](Oc3ccc(C(F)(F)F)cn3)C2)c(CO)n1 [Compound 1-182, (S)-(6-o-tolyl-3-(3-(5-(trifluoromethyl)pyridin-2-yloxy)pyrrolidin-1-yl)pyridin-2-yl)methanol] | – | > 1000 | > 3200 | – | – | – | ~0.8 (≈ 0.344 µg/mL) | – | – | – | – | 4600 | 19900 | – |
| COc1ccccc1-c1ccc(N2CC[C@H](Oc3ccc(C(F)(F)F)cn3)C2)c(CO)n1 [Compound 1-183, (S)-(6-(2-methoxyphenyl)-3-(3-(5-(trifluoromethyl)pyridin-2-yloxy)pyrrolidin-1-yl)pyridin-2-yl)methanol] | – | – | – | > 1000 | > 3200 | no fit (5 min) no fit (30 min) | 0.84 (≈ 0.374 µg/mL) | – | – | no fit (5 min) no fit (30 min) | – | – | – | – |
| CCc1ccccc1Oc1ccc(N2CC[C@H](Oc3ncccc3Cl)C2)c(CCO)c1 [Compound 1-236, (S)-2-(2-(3-(3-chloropyridin-2-yloxy)pyrrolidin-1-yl)-5-(2-ethylphenoxy)phenyl)ethanol] | BLQ | < 10 | 8.27 | – | – | no fit | – | – | – | – | – | 5900 | – | – |
| Cc1ccccc1-c1ccc(N2CC[C@H](Oc3ccc(C(F)(F)F)cn3)C2)c(CO)c1 [Compound 1-128, (S)-(2′-methyl-4-(3-(5-(trifluoromethyl)pyridin-2-yloxy)pyrrolidin-1-yl)biphenyl-3-yl)methanol] | BLQ | 100 to 1000 | 114 | – | – | no fit (5 min) | – | – | – | – | – | – | – | – |
| NC(=O)c1cc(Oc2ccccc2)ccc1N1CC[C@H](Oc2ncccc2Cl)C1 [Compound 1-129] | – | – | – | – | – | – | – | 100 to 1000 | – | – | 6.42 | – | – | no fit (5 min) |
| NC(=O)c1cc(-c2ccccc2)ccc1N1CC[C@H](Oc2ccc3cc(Cl)ccc3n2)C1 [Compound 1-67, (S)-4-(3-(6-chloroquinolin-2-yloxy)pyrrolidin-1-yl)biphenyl-3-carboxamide] | BLQ | > 1000 | 1270 | 100 to 1000 | 585 | no fit (5 min) | – | – | – | – | – | – | – | – |
